Measured values reported in the Deep4Chem optical property database.
Values joined by “and” are separate entries in the source; they are usually repeats but may differ in a detail not shown here. Equal values may be shown once. Blank lines part the entries; values can stand above or below the molecule they belong to.

Assay: solvent given as SMILES
[1] = in O=P(c1ccccc1)(c1ccccc1)c1ccccc1Oc1ccccc1P(=O)(c1ccccc1)c1ccccc1

SMILES: Nc1ccc2c(c1)C(=O)NC2=O
- emission maximum (in C1CCOC1): 445 nm
- emission maximum (in C1COCCO1): 435 nm
- emission maximum (in CC#N): 458 nm
- emission maximum (in CC(C)(C)O): 501 nm
- emission maximum (in CC(C)=O): 457 nm
- emission maximum (in CC(C)O): 505 nm
- emission maximum (in CCO): 520 nm
- emission maximum (in CCOCC): 425 nm
- emission maximum (in CN(C)C=O): 470 nm
- emission maximum (in CO): 518 nm
- emission maximum (in O): 540 nm

- emission maximum (in C1CCOC1): 360 nm
SMILES: O=C1c2cc(-c3ccccc3)ccc2-c2ccc(-c3ccccc3)cc21

- emission maximum (in C1CCOC1): 406 nm
SMILES: CC(C)(C)c1ccc(-c2c(-c3ccc(N(c4ccccc4)c4ccccc4)cc3)cc(-c3ccc(N(c4ccccc4)c4ccccc4)cc3)c(-c3ccc(C(C)(C)C)cc3)c2-c2ccc(C(C)(C)C)cc2)cc1

- emission maximum (in CC(C)(C)O): 478 nm
- emission maximum (in CC(C)CO): 481 nm
- emission maximum (in CC(C)O): 481 nm
- emission maximum (in CCCCO): 467 nm
- emission maximum (in CCCO): 464 nm
- emission maximum (in CCO): 464 nm
- emission maximum (in CN(C)C=O): 466 nm
- emission maximum (in CNC=O): 450 nm
- emission maximum (in CO): 466 nm
- emission maximum (in NC=O): 458 nm
- emission maximum (in O): 496 nm
SMILES: COCCOCCOc1cc(C=O)c(OCCOCCOC)cc1C=O

SMILES: F[B-]1(F)Oc2ccccc2-c2cc(-n3c4ccccc4c4ccccc43)cc[n+]21
- emission maximum (in Cc1ccccc1): 449 nm
- emission maximum [1]: 475 nm

- emission maximum (in ClCCl): 635 nm
SMILES: CN(C)c1ccc(-c2cccc3nsnc23)cc1

- emission maximum (in C1CCOC1): 423 nm
SMILES: COc1ccc(-c2cnc3nn4ccccc4c3c2)cc1

SMILES: O=S(=O)(c1ccccc1)c1ccc(-c2ccc3c(c2)c2cc(-c4ccc(S(=O)(=O)c5ccccc5)cc4)ccc2n3-c2ccccc2)cc1
- emission maximum (in CCCCCC): 377 nm
- emission maximum (in CN(C)C=O): 431 nm
- emission maximum (in CO): 434 nm
- emission maximum (in Cc1ccccc1): 381 nm
- emission maximum (in ClCCl): 395 nm

SMILES: CCC1(CC)c2cc(B(c3c(C)cc(C)cc3C)c3c(C)cc(C)cc3C)ccc2-c2c1c1c(c3c2C(CC)(CC)c2cc(B(c4c(C)cc(C)cc4C)c4c(C)cc(C)cc4C)ccc2-3)C(CC)(CC)c2cc(B(c3c(C)cc(C)cc3C)c3c(C)cc(C)cc3C)ccc2-1
- emission maximum (in C1CCOC1): 386 nm
- emission maximum (in CC#N): 403 nm
- emission maximum (in CC(C)=O): 396 nm
- emission maximum (in CCCCCC): 382 nm
- emission maximum (in Cc1ccccc1): 385 nm

- emission maximum (in C1COCCO1): 601 nm
SMILES: CC(C)CN1C(=O)/C(=C/c2ccc([N+](=O)[O-])cc2)C=C1c1ccccc1

- emission maximum (in CS(C)=O): 527 nm
SMILES: C(/C=C/Nc1cccc2ccccc12)=[NH+]c1cccc2ccccc12

SMILES: CC1(C)c2ccccc2N(c2ccc3c(c2)C(C)(C)c2cc(N4c5ccccc5C(C)(C)c5ccccc54)ccc2S3(=O)=O)c2ccccc21
- emission maximum (in C1CCOC1): 473.1 nm
- emission maximum (in CC#N): 526.32 nm
- emission maximum (in Cc1ccccc1): 451.46 nm and 453.62 nm
- emission maximum (in ClCCl): 504 nm

- emission maximum (in C1COCCO1): 574 nm
SMILES: COC(=O)c1ccc(/C=C2\C=C(c3ccc(OC)c(OC)c3)NC2=O)cc1

SMILES: CCN1c2ccc(/C=N/Nc3ccccn3)cc2Sc2cc(/C=N/Nc3ccccn3)ccc21
- emission maximum (in C1CCOC1): 495 nm
- emission maximum (in CS(C)=O): 507 nm
- emission maximum (in Cc1ccccc1): 491 nm
- emission maximum (in ClCCl): 498 nm

SMILES: N#Cc1cc(C#N)c(-c2cc(-n3c4ccccc4c4ccccc43)cc(-n3c4ccccc4c4ccccc43)c2)cc1-c1cc(-n2c3ccccc3c3ccccc32)cc(-n2c3ccccc3c3ccccc32)c1
- emission maximum (in Cc1ccccc1): 372 nm

- emission maximum (in O): 555 nm
SMILES: CC1(C)C(=O)C=Cc2ccc(N3CCC3)cc21

SMILES: c1ccc2cc3c4c(ccc3cc2c1)-c1cccc2cccc-4c12
- emission maximum (in CCCCCCC): 520 nm

- emission maximum (in ClCCl): 409 nm
SMILES: CCOC(=O)c1c(-c2c(Cl)c3ccccc3oc2=O)nn(-c2cccc(Cl)c2)c1C(=O)OCC

- emission maximum (in C1CCCCC1): 405.03 nm
- emission maximum (in CC#N): 508.48 nm
- emission maximum (in ClCCl): 471.15 nm
SMILES: O=S1c2ccc(-c3c4ccccc4cc4ccccc34)cc2-c2cc(-c3c4ccccc4cc4ccccc34)ccc21

- emission maximum (in CC#N): 732 nm
- emission maximum (in ClCCl): 740 nm
SMILES: F[B-]1(F)n2c(-c3cccs3)cc(-c3ccccc3)c2N=C2C(c3ccccc3)=CC(c3cccs3)=[N+]21

SMILES: c1cc2cc(c1)c1cccc(c1)c1ccc3ccc4ccc(cc4c3c1)c1cccc(c1)c1cccc2c1
- emission maximum (in Cc1ccccc1): 382 nm

- emission maximum (in CC#N): 352 nm
- emission maximum (in CO): 360 nm
SMILES: CC(C)CCCN1c2ccccc2CCc2ccccc21

- emission maximum (in ClC(Cl)Cl): 577 nm
SMILES: O=Cc1ccc(C#CC(C#Cc2ccc(C=O)o2)=Cc2ccc(C=C(C#Cc3ccc(C=O)o3)C#Cc3ccc(C=O)o3)s2)o1

- emission maximum (in ClCCl): 716 nm
SMILES: COC(=O)c1ccc(C2=C3C=c4sc(-c5cccs5)cc4=[N+]3[B-](F)(F)n3c2cc2sc(-c4cccs4)cc23)cc1

- emission maximum (in CO): 813 nm
SMILES: CC1(C)C(/C=C/C2=C(Cl)C(=C/C=C3/N(Cc4ccccc4)c4ccccc4C3(C)C)/CCC2)=[N+](Cc2ccccc2)c2ccccc21

- emission maximum (in CC#N): 406 nm
SMILES: O=c1oc2ccccc2cc1C#Cc1ccccc1

- emission maximum (in C1CCOC1): 427 nm
SMILES: Nc1ccccc1/C=C/C(F)(F)F

- emission maximum (in ClC(Cl)Cl): 498 nm
SMILES: c1ccc(-c2nc(-c3ccccn3)[se]c2N(c2ccccc2)c2ccccc2)cc1

- emission maximum (in O): 546 nm
SMILES: COc1cc2cc(-c3ccc(C(=O)OCOC(C)=O)cc3C(=O)OCOC(C)=O)oc2cc1N1CCOCCOCCN(c2cc3oc(-c4ccc(C(=O)OCOC(C)=O)cc4C(=O)OCOC(C)=O)cc3cc2OC)CCOCCOCC1

SMILES: COc1cc(OC)cc(C2=[O+][B-](F)(F)OC(c3ccc4cc(OC)ccc4c3)=C2)c1
- emission maximum (in CC#N): 550.5 nm
- emission maximum (in CC(C)=O): 533.32 nm
- emission maximum (in CCCCCC): 430.95 nm
- emission maximum (in Cc1ccccc1): 475.78 nm
- emission maximum (in ClCCl): 520 nm

- emission maximum (in ClCCl): 622 nm
SMILES: CCCCCCOc1cc(C=C2C(=O)c3ccccc3C2=O)c(OCCCCCC)cc1C=C1C(=O)c2ccccc2C1=O

SMILES: CCCCCCCC(=O)Oc1ccc2c3cccc4c(OC(=O)CCCCCCC)ccc(c5cccc1c52)c43
- emission maximum (in C1CCOC1): 454.01 nm
- emission maximum (in Cc1ccccc1): 456.99 nm
- emission maximum (in ClC(Cl)(Cl)Cl): 456.99 nm
- emission maximum (in ClC(Cl)Cl): 456.01 nm
- emission maximum (in ClCCl): 455 nm
- emission maximum (in c1ccncc1): 459.02 nm

- emission maximum (in CC1CCCO1): 468 nm
SMILES: CCCCCCOc1cc2cc(=O)oc3ccc4cccc1c4c23

- emission maximum (in ClC(Cl)Cl): 399 nm
SMILES: COc1cc2cc(C#N)c3ccc4ccccc4c3c2cc1OC

SMILES: CCN(CC)c1ccc2c(C#N)c(/C=C(\C#N)c3nc4ccccc4s3)c(=O)oc2c1
- emission maximum (in C1COCCO1): 647 nm
- emission maximum (in CC#N): 679 nm
- emission maximum (in CCO): 692 nm
- emission maximum (in CCOC(C)=O): 664 nm
- emission maximum (in CO): 701 nm
- emission maximum (in Cc1ccccc1): 637 nm
- emission maximum (in ClCCl): 666 nm

- emission maximum (in ClCCl): 518 nm
SMILES: Cc1cn2cc(-c3ccc(C#N)cc3)[n-][n+]2c1

- emission maximum (in C1CCCCC1): 368 nm
SMILES: CCCC1(CCC)c2cc(-c3ccc(C(C)(C)CC)cc3)ccc2-c2ccc(-c3ccc(C(C)(C)CC)cc3)cc21

- emission maximum (in ClCCl): 425 nm
SMILES: CCOC(=O)c1c(-c2cc3ccc(OCC=C(C)C)cc3oc2=O)nn(-c2ccccc2)c1C(=O)OCC

- emission maximum (in ClC(Cl)Cl): 715 nm
- emission maximum (in ClCCl): 715 nm
SMILES: COc1ccc(C2=[N+]3C(=Nc4c(-c5ccccc5)cc(-c5ccc(OC)cc5)n4[B-]3(F)F)C(c3ccccc3)=C2)cc1

- emission maximum (in ClCCl): 718 nm
SMILES: COc1c2ccccc2c(OC)c2c(C#Cc3ccccc3)c3cc4ccccc4cc3c(C#Cc3ccccc3)c12

- emission maximum (in ClCCl): 550 nm
SMILES: CN(C)c1ccc(/C=C/c2cnc(-c3ccncc3)o2)cc1

SMILES: c1ccc(-c2nc(-c3ccccc3)nc(-c3cc(-n4c5ccccc5c5ncccc54)c(-n4c5ccccc5c5ccccc54)c(-n4c5ccccc5c5ncccc54)c3)n2)cc1
- emission maximum (in CC#N): 525.35 nm
- emission maximum (in CCCCCC): 446.05 nm
- emission maximum (in Cc1ccccc1): 464.88 nm
- emission maximum (in ClCCl): 502.79 nm
- emission maximum [1]: 455.49 nm

SMILES: CC(C)[Si](C#Cc1c2ccccc2c(C#Cc2c3ccccc3c(C#Cc3c4ccccc4c(C#Cc4c5ccccc5c(C#Cc5c6ccccc6c(C#C[Si](C(C)C)(C(C)C)C(C)C)c6ccccc56)c5ccccc45)c4ccccc34)c3ccccc23)c2ccccc12)(C(C)C)C(C)C
- emission maximum (in Cc1ccccc1): 623 nm

SMILES: CCCC1=Cc2nc1ccc1[nH]c(cc1CCC)c1nc(c(O)cc3[nH]c2cc3CCC)C(CCC)=C1
- emission maximum (in Cc1ccccc1): 683 nm

SMILES: CCN(CC)c1ccc(OC)c(C=O)c1
- emission maximum (in CC#N): 548 nm
- emission maximum (in CC(C)O): 600 nm
- emission maximum (in CCCCCC): 470 nm
- emission maximum (in CCOC(C)=O): 518 nm
- emission maximum (in CO): 645 nm
- emission maximum (in CS(C)=O): 558 nm
- emission maximum (in Cc1ccccc1): 509 nm
- emission maximum (in ClCCl): 538 nm

- emission maximum (in ClCCl): 425 nm
SMILES: CCOC(=O)c1ccc(C2=Cc3ccccc3P2(=O)c2ccccc2)cc1 (centres undefined)

SMILES: c1ccc(N(c2ccccc2)c2ccc3c4cccc5c(N(c6ccccc6)c6ccccc6)ccc(c6cccc2c63)c54)cc1
- emission maximum (in C1CCCCC1): 531 nm
- emission maximum (in C1CCOC1): 545 nm
- emission maximum (in CC#N): 548 nm
- emission maximum (in Cc1ccccc1): 541 nm
- emission maximum (in ClCCl): 547 nm

SMILES: C1=Nc2cccc3cccc(c23)N1
- emission maximum (in CC#N): 476 nm
- emission maximum (in CO): 485 nm
- emission maximum (in CS(C)=O): 482 nm
- emission maximum (in Cc1ccccc1): 472 nm

- emission maximum (in C1CCOC1): 446 nm
SMILES: F[B-]1(F)OC(c2ccccc2)=C(c2ccccc2)c2sc3ccccc3[n+]21

- emission maximum (in ClC(Cl)Cl): 429 nm
SMILES: CN(C)c1ccc(-c2ccc(-c3cc(-c4ccccc4)c(-c4ccccc4)c(-c4ccccc4)c3-c3ccccc3)nc2)cc1

- emission maximum (in ClCCl): 513 nm
SMILES: CC(C)(C)c1ccc2c(c1)c1cc(C(C)(C)C)ccc1n2-c1ccc(N(c2ccc(-c3ccc(-c4ccc(-c5ccc(-c6ccc(N(c7ccc(-n8c9ccc(C(C)(C)C)cc9c9cc(C(C)(C)C)ccc98)cc7)c7ccc(-n8c9ccc(C(C)(C)C)cc9c9cc(C(C)(C)C)ccc98)cc7)cc6)cc5)c5nsnc45)cc3)cc2)c2ccc(-n3c4ccc(C(C)(C)C)cc4c4cc(C(C)(C)C)ccc43)cc2)cc1

- emission maximum (in C1CCOC1): 410 nm
SMILES: FP(F)(c1c2ccccc2cc2ccccc12)(c1c2ccccc2cc2ccccc12)c1c2ccccc2cc2ccccc12

- emission maximum (in C1CCCCC1): 411 nm
- emission maximum (in CC#N): 421 nm
- emission maximum (in CO): 417 nm
- emission maximum (in ClCCl): 418 nm
SMILES: COc1c2ccccc2c(OC)c2c1c1c(F)cccc1n2C
